Test results taken from ChEMBL document CHEMBL1201862, “PubChem BioAssay data set” (2004).
Activity calls are given as the source filed them.

Columns and labels:
[1] = tested on: Vero; assay: cells; format: functional, cell-based; conditions: Chlorocebus sabaeus
[2] = HEp-2 cell cytotoxicity, dose response, cytotoxicity control for RSV inhibitor project, HTS (AID 2410); format: functional; conditions: human respiratory syncytial virus
[3] = molecular target: T1, Hexokinase HKDC1 (Homo sapiens, UniProt Q2TB90); assay: SAR analysis of small molecule inhibitors of hexokinase domain containing I (HKDC1). [Related pubchem assays (depositor defined):AID493160, AID493190]; format: functional
T1 sequence (Q2TB90 whole entry): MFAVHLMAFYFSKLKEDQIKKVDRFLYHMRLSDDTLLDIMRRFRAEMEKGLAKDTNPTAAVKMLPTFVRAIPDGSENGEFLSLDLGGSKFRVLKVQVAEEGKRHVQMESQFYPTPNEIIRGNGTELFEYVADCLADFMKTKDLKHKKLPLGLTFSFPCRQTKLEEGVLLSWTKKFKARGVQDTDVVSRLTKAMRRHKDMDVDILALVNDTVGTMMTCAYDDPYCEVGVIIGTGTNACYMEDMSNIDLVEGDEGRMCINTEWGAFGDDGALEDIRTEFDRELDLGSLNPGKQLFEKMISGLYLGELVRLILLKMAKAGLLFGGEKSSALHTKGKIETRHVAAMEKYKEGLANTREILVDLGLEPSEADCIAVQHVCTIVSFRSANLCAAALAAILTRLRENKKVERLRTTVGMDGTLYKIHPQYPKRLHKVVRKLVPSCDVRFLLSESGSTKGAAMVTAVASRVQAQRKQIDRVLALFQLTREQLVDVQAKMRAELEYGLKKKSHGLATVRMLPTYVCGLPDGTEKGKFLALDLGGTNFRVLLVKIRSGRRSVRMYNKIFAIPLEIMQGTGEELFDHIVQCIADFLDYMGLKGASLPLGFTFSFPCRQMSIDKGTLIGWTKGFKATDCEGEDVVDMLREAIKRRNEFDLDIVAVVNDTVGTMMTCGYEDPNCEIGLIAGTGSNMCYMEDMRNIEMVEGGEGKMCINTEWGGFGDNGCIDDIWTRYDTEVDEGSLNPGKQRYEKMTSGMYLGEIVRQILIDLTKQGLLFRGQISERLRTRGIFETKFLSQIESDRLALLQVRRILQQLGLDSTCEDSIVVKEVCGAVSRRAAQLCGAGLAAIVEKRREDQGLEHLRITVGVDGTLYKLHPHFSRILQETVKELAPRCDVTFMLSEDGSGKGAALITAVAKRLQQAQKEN

[4] = molecular target: T2, Hexokinase-1 (Homo sapiens, UniProt P19367); assay: SAR analysis of small molecule inhibitors of hexokinase domain containing I (HKDC1) in the hexokinase 1 selectivity assay. [Related pubchem assays (depositor defined):AID493160, AID493190]; format: functional
T2 sequence (P19367 whole entry): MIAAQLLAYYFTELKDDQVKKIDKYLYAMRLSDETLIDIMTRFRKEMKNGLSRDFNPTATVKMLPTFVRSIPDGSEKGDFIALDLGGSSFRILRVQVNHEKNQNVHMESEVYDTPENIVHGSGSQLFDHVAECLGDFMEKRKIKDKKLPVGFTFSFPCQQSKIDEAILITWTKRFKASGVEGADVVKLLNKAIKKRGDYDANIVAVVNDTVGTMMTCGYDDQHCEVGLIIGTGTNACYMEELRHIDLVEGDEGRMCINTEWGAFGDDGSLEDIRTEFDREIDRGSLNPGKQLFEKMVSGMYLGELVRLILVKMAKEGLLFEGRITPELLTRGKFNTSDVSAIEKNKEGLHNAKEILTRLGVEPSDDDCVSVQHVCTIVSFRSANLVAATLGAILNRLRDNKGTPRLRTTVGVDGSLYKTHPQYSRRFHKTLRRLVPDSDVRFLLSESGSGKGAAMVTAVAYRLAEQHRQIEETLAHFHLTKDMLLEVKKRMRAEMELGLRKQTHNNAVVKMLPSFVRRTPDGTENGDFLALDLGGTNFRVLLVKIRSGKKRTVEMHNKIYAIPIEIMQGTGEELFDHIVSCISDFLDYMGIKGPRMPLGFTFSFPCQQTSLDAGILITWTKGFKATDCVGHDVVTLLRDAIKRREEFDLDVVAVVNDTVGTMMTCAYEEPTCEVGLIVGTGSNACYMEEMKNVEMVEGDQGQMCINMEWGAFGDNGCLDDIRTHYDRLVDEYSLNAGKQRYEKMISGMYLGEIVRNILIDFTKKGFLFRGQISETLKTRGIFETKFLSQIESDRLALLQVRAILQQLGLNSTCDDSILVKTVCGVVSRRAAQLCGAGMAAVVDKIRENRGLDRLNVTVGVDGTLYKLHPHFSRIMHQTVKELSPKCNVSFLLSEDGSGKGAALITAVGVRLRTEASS

[5] = molecular target: FAD-linked sulfhydryl oxidase ALR (Homo sapiens, UniProt P55789); assay: inhibitors of human ALR sulfhydryl oxidase, dose response, biochemical, H2O2 detection, luminescence, cherry-pick (AID 493248)
[6] = molecular target: Beta-2 adrenergic receptor (Homo sapiens, UniProt P07550); assay: beta2AR agonists driving receptor internalization, dose response, cell-based, FAP fluorogen, flow cytometry, cherry pick 1 (AID 588763); format: functional
[7] = tested on: Escherichia coli; assay: microbe, parasite or virus in culture
[8] = tested on: Escherichia coli; assay: microbe, parasite or virus in culture; remark: listed apart in the source
[9] = molecular target: Beta-adrenergic receptor kinase 1 (Homo sapiens, UniProt P25098); assay: aptamer displacement from bead-bound GRK2 – biochemical, cherry pick 1, bead flow cytometry, dose response (AID 504500)
[10] = molecular target: Guanyl-specific ribonuclease T1 (Aspergillus oryzae (strain ATCC 42149 / RIB 40), UniProt P00651); assay: RNase T1 inhibitors, dose response, counter-screen for TPT1 inhibitor project, biochemical, fluorescence polarization, 1536-well (AID 2167)
[11] = molecular target: Likely tRNA 2'-phosphotransferase (Candida albicans (strain SC5314 / ATCC MYA-2876) (Yeast), UniProt Q5A7N4); assay: TPT1 tRNA phosphotransferase inhibitors, dose response, biochemical, fluorescence polarization (AID 2160)
Chain of Likely tRNA 2'-phosphotransferase (Q5A7N4 whole entry): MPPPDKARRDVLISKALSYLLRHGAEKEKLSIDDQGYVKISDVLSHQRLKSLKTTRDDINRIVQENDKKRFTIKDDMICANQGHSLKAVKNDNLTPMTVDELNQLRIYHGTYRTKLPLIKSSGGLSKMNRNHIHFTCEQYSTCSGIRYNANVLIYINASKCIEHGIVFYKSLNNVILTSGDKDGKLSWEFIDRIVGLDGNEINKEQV

Chain of Guanyl-specific ribonuclease T1 (P00651 whole entry): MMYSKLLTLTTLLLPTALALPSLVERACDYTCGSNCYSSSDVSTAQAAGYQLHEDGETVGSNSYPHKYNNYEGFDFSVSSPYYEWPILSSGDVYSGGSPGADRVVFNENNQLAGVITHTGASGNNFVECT
Chain of Beta-adrenergic receptor kinase 1 (P25098 whole entry): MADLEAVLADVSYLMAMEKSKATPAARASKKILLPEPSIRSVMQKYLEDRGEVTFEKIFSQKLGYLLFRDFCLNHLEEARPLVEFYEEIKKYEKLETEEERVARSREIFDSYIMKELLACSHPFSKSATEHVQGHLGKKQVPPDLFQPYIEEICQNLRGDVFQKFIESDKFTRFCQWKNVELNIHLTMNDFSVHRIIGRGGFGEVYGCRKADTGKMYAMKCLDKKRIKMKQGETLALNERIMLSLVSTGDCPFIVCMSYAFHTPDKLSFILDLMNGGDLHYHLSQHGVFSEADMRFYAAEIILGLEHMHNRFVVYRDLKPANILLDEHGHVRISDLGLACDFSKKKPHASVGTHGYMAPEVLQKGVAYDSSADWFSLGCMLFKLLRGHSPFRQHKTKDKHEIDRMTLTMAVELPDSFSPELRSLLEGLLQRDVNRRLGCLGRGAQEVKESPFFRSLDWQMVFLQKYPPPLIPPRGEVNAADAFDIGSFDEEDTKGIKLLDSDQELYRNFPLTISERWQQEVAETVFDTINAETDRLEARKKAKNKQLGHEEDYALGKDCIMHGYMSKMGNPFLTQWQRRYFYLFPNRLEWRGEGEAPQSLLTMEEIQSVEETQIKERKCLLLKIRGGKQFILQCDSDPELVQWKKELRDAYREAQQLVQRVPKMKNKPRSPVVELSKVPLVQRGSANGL
Chain of FAD-linked sulfhydryl oxidase ALR (P55789 whole entry): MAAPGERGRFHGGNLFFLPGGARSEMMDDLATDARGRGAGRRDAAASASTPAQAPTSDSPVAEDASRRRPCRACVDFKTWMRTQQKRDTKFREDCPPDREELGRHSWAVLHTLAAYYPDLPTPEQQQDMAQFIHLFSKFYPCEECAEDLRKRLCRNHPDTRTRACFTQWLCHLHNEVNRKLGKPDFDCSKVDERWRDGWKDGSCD
Chain of Beta-2 adrenergic receptor (P07550 whole entry): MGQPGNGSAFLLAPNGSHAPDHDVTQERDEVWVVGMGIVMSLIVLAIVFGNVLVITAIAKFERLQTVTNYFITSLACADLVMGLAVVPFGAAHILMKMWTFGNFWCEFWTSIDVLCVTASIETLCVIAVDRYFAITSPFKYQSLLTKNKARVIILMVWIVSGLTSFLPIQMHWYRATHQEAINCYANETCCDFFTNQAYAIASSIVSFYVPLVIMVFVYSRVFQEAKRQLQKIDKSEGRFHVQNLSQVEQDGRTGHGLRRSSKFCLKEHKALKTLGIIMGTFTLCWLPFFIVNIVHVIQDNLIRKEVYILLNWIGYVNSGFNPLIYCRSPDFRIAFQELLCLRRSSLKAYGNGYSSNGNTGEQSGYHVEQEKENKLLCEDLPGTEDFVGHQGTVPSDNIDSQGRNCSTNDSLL

## Cc1cccc(NC(=O)CSc2nc3ccccc3nc2N2CCCC2)c1
[1]
  IC50: > 25 µM (active)
[2]
  CC50: 13.7 µM (active)

## N#Cc1ccc(CSc2nnc(NC(=O)c3ccc(O)nc3)s2)cc1
[3]
  IC50: > 80 µM (inactive)
[4]
  IC50: > 80 µM (inactive)
[5]
  AC50: 0.679 µM (active)

## CCCCN(CCCC)c1nc(OC)nc(-n2nnc(C(C)=O)c2C)n1
[6]
  EC50: 12.1 µM (inactive)

## CCN(CC)CC(=O)c1c[nH]c2ccc(OC)cc12
[7]
  AC50: 25.6 µM (active)
[8]
  AC50: 26.5 µM (active)

## NC(=O)c1cc[n+](CC2=C(C(=O)O)N3C(=O)[C@@H](NC(=O)[C@@H](c4ccccc4)S(=O)(=O)[O-])[C@H]3SC2)cc1 [CEFSULODIN SODIUM]
[9]
  EC50: 0.07 µM (active)
[10]
  IC50: > 55.7 µM (not active)
[11]
  IC50: 1.69 µM (active)
